Where two headings read alike, the source gives them in different places.
Assays:
[1] = tested on: 4T1 (mouse triple-negative breast cancer cells); assay: MTT viability assay / IC50 determination in 4T1 cells; format: cell-based; details: for cytotoxic effect on 4T1 cells, MTT assay: 20 μM; for cytotoxic effect on 4T1 cells, MTT assay / cytotoxicity (viability of 4T1 cells), MTT assay: 48 h; for cytotoxicity (viability of 4T1 cells), MTT assay: 10 or 20 μM, Figure S74; for IC50: MTT assay, 48 h treatment, n = 6–8, read-out: IC50 [95% C.I.], 4T1
Method: (§1) 4T1 (mouse triple-negative breast cancer cells) were cultured in RPMI (Roswell Park Memorial Institute) 1640 medium supplemented with 5% fetal bovine serum (FBS) (both from Thermo Fisher Scientific, Waltham, MA, USA). MDA-MB-231 (human triple-negative breast cancer cells, abbreviated as MDA) were cultured in DMEM (Dulbecco’s modified Eagle’s medium, Thermo Fisher Scientific) + 5% FBS. D3 (hCMEC/D3 human cerebral microvascular endothelial cells) were kept in rat tail collagen-coated dishes in EBM-2 (endothelial basal medium-2, Lonza, Basel, Switzerland) complemented with 2% FBS and an EGM-2MV kit (Lonza).
(§2) Viability and impedance measurements were performed in the log growth phase of tumor cells and in the stationary phase of endothelial cells.
(§3) For the MTT (3-[4,5-dimethylthiazole-2-yl]-2,5-diphenyltetrazolium bromide) viability assay, cells were plated in 96-well plates (Corning, Corning, NY, USA). The seeding density of the cells was 5000/well (for 4T1 or MDA cells) or 25 000/well (for D3 cells). After 48 h, half of the medium was replaced with serum-free medium, containing the test compounds in a final concentration of 10 or 20 μM. Control wells received solvent (DMSO) in up to a 0.2% concentration. After 48 h, MTT reagent (Sigma-Aldrich, St. Louis, MO, USA) was added to the cells in a final concentration of 2.5 mg/mL. After incubation at 37 °C for 30 min, acidified isopropanol solution was added to each well. Absorbance was measured at 595 nm with a FLUOstar OPTIMA microplate reader (BMG LABTECH, Offenburg, Germany). Doxorubicin was used as a positive control, at a concentration of 10 μM.
(§4) For determining IC50 values, nine-step, 2-fold serial dilutions of the test compounds were applied, starting from 100 μM. Cells were treated for 48 h, and viability was measured with the MTT assay, as described above. Half-maximum inhibitory concentrations (IC50) were calculated via nonlinear dose–response curve fitting by the log(inhibitor) vs response (variable slope) model of GraphPad Prism 5.01 (GraphPad Software, San Diego, CA, USA) by using automatic outlier elimination at Q = 1.0.

[2] = tested on: 4T1 (mouse triple-negative breast cancer cells); assay: Impedance measurement (xCELLigence RTCA, cell index) in 4T1 cells; format: cell-based; details: 20 μM, 48 h
Method: as §1, §2
For impedance measurements, cells were plated in 96-well E-plates having microelectrodes integrated on the bottom (ACEA Biosciences, San Diego, CA, USA) and allowed to attach onto the electrode surface for 48 h. Afterward, cells were treated with the test compounds as described above. Electrical impedance was recorded every 30 min for 48 h using an xCELLigence real-time cell analysis (RTCA) instrument (ACEA Biosciences). Cell index was automatically calculated by the software of the instrument.

[3] = tested on: MDA-MB-231 (human triple-negative breast cancer cells); assay: MTT viability assay / IC50 determination in MDA-MB-231 cells; format: cell-based; details: for cytotoxicity (viability of MDA cells), MTT assay: 10 or 20 μM, 48 h, Figure S74; for IC50: MTT assay, 48 h treatment, n = 6–8, read-out: IC50 [95% C.I.], MDA-MB-231
Method: as §1, §2, §3, §4

[4] = tested on: D3 (hCMEC/D3 human cerebral microvascular endothelial cells); assay: MTT viability assay / IC50 determination in D3 endothelial cells; format: cell-based; details: for cytotoxicity (viability of D3 cells), MTT assay: 10 or 20 μM, 48 h, Figure S74; for IC50: MTT assay, 48 h treatment, n = 6–8, read-out: IC50 [95% C.I.], D3
Method: as §1, §2, §3, §4

[5] = tested on: A2780 human ovarian cancer cells; parameters: method as in Bús et al. 8; details: ref Bús et al. 8; cited from earlier work
[6] = tested on: HeLa cervical cancer cells; parameters: method as in PMID 31005716; details: cited from earlier work

| Compound | cytotoxic effect on 4T1 cells, MTT assay [1] | cytotoxic effect on 4T1 cells, impedance measurements (cell index) [2] | cytotoxicity (viability of 4T1 cells), MTT assay [1] | cytotoxicity (viability of MDA cells), MTT assay [3] | cytotoxicity (viability of D3 cells), MTT assay [4] | also measured |
| --- | --- | --- | --- | --- | --- | --- |
| Cc1c(O)ccc2c1CCc1cc(O)cc(C=O)c1-2 [2,7-dihydroxy-5-formyl-1-methyl-9,10-dihydrophenanthrene] | not cytotoxic | not cytotoxic | – | – | – | – |
| Cc1c(O)ccc2c1CCc1cc(O)cc(CO)c1-2 [2,7-dihydroxy-5-hydroxymethyl-1-methyl-9,10-dihydrophenanthrene] | not cytotoxic | not cytotoxic | – | – | – | – |
| C=Cc1cc(O)cc2c1-c1ccc(OC)c(C)c1CC2 [7-hydroxy-2-methoxy-1-methyl-5-vinyl-9,10-dihydrophenanthrene] | not cytotoxic | not cytotoxic | – | – | – | – |
| Cc1c(O)ccc2c1CCc1cc(O)cc(C3CC=Cc4c5c(cc(O)c43)CCc3c-5ccc(O)c3C)c1-2 (stereo not drawn) [Compound 9, Gerardiin I] | – | – | cytotoxic | cytotoxic | cytotoxic | IC50 [1]: 7.8 µM; IC50 ([1]; Mus musculus, 4T1, 48 h): < 10 µM; IC50 ([3]; Homo sapiens, MDA-MB-231, 48 h): < 10 µM; IC50 [3]: 8 µM; IC50 ([4]; Homo sapiens, hCMEC/D3): 21.6 µM |
| C=Cc1cc(O)c(Cc2c(O)cc(C=C)c3c2ccc2c(C)c(O)ccc23)c2c1-c1ccc(O)c(C)c1CC2 [Compound 12, Gerardiin L] | – | – | cytotoxic | cytotoxic | cytotoxic | IC50 [1]: > 10 µM; IC50 ([1]; Mus musculus, 4T1, 48 h): 11.7 µM; IC50 ([3]; Homo sapiens, MDA-MB-231, 48 h): 7.3 µM; IC50 ([4]; Homo sapiens, hCMEC/D3): 13.7 µM |
| C=Cc1cc(O)cc2c1-c1ccc(O)c(C)c1CC2 [Compound 13, effusol] | – | – | no or very low cytotoxicity | no or very low cytotoxicity | no or very low cytotoxicity | – |
| C=Cc1cc(O)cc2ccc3c(C)c(O)ccc3c12 [Compound 14, dehydroeffusol] | – | – | no or very low cytotoxicity | no or very low cytotoxicity | no or very low cytotoxicity | – |
| C=Cc1cc(O)cc2c1-c1cc(-c3cc4c(c(C)c3O)CCc3cc(O)cc(C=C)c3-4)c(O)c(C)c1CC2 [Compound 15, Effususin A] | – | – | cytotoxic | cytotoxic | cytotoxic | toxicity in A2780 human ovarian cancer cells [5]: moderate toxicity |
| C=Cc1c(C)c(O)cc2c1-c1ccc(OC)c(C)c1CC2 [compressin A] | not cytotoxic | not cytotoxic | – | – | – | – |
| COc1cccc2c1C(=O)c1c(O)c3c(c(O)c1C2=O)C[C@@](O)(C(=O)CO)C[C@@H]3O[C@H]1C[C@H](N)[C@H](O)[C@H](C)O1 [doxorubicin, reference compound] | – | – | – | – | – | IC50 ([1]; Mus musculus, 4T1, 48 h): 3.4 µM; IC50 ([3]; Homo sapiens, MDA-MB-231, 48 h): 0.8 µM; IC50 ([4]; Homo sapiens, hCMEC/D3): 0.8 µM |
| COC(C)c1cc(O)cc2c1-c1ccc(O)c(C)c1CC2 (stereo not drawn) [effususol A] | not cytotoxic | not cytotoxic | – | – | – | – |
| C=C[C@@]1(C)C(=O)C2=C(C[C@H]1O)c1ccc(O)c(C)c1CC2 [jinflexin C] | – | moderate cytotoxicity | – | – | – | – |
| C=Cc1c(C)c(O)cc2c1-c1ccc(O)c(C)c1CC2 [juncusol] | moderate cytotoxicity | moderate cytotoxicity | – | – | – | antiproliferative activity against HeLa cervical cancer cells [6]: antiproliferative activity |
| Gerardiin J [Compound 10] | – | – | cytotoxic | cytotoxic | cytotoxic | IC50 [1]: 5.6 µM; IC50 [3]: 6.6 µM; IC50 [4]: 15.7 µM |
| Gerardiin K [Compound 11] | – | – | cytotoxic | cytotoxic | cytotoxic | IC50 [1]: 8.1 µM; IC50 [3]: > 10 µM; IC50 [4]: 10.6 µM |

— paper PMC7660940, “Gerardiins A–L and Structurally Related Phenanthrenes from the Halophyte Plant Juncus gerardii and Their Cytotoxicity against Triple-Negative Breast Cancer Cells” (Journal of Natural Products, 2020)
